# Measured values published in patent publication US20170166561A1, “QUINUCLIDINE COMPOUNDS FOR MODULATING ALPHA7-NICOTINIC ACETYLCHOLINE RECEPTOR ACTIVITY” (Alpharmagen, LLC, priority 2014, published 2017).
# Structures can show the parent of a compound that is named as a salt.
# Assay: Human plasma stability (Protocols 1 and 2)
# Assay type: in vitro ADME
# Details: human, plasma, 2 h, 1 μM, pH 7.4
# Protocol: Example B6: Human Plasma Stability
# Studies were carried out in human plasma. All plasma was obtained from Bioreclamation and collected on sodium heparin. Plasma was adjusted to pH 7.4. A DMSO stock was first prepared for the test compound. An aliquot of the DMSO solution was dosed into 1 mL of plasma, which had been pre-warmed to 37° C., at a final test compound concentration of 1 μM. The vials were kept in a benchtop Thermomixer® for the duration of the experiment. Aliquots (100 μL) were taken at each time point (0, 15, 30, 60, and 120 minutes) and added to 96-well plates which had been pre-filled with 300 μL of acetonitrile. Samples were stored at 4° C. until the end of the experiment. After the final time point was sampled, the plate was mixed and then centrifuged at 3,000 rpm for 10 minutes. Aliquots of the supernatant were removed, diluted 1:1 into distilled water, and analyzed by LC-MS/MS. The peak area response ratio to internal standard (PARR) of the compound at 15, 30, 60 and 120 minutes was compared to the PARR at time 0 to determine the percent of test compound remaining at each time point. Half-lives were calculated using GraphPad software, fitting to a single-phase exponential decay equation.
# Studies were carried out in plasma. Plasma was prepared under approval of IRB and IACUC on sodium heparin. The pH of plasma was monitored and used within the range of pH 7.4 to pH 8.0. DMSO stocks were prepared for the test compounds. Aliquots of the DMSO solutions were diluted to 0.05 mM by 0.05 mM Sodium phosphate buffer with 0.5% BSA. Then 10 μL of 0.05 mM solutions were dosed into 90 μL of plasma in duplicates (n=2), which had been pre-warmed to 37° C., at a final test compound concentration of 5 μM. The plates were kept in a 37° C. water bath for the duration of the experiment. At each time point (0, 5, 15, 30, 45, 60, and 120 minutes), 400 μL of acetonitrile was added into corresponding wells. After the final time point was sampled, the plates were shaken at the vibrator (IKA, MTS 2/4) for 10 min (600 rpm/min) and then centrifuged at 5594 g for 15 min (Thermo Multifuge×3R). Aliquots of the supernatant were removed, diluted 1:1 into distilled water, and analyzed by LC-MS/MS. The peak area response ratio to internal standard (PARR) of the compounds at 5, 15, 30, 45, 60, and 120 minutes was compared to the PARR at time 0 to determine the percent of test compound remaining at each time point. Half-lives were calculated using Excel software, fitting to a single-phase exponential decay equation.
row,SMILES,% Remaining @ 2 h [%]
1,"O=C(OCC12CCN(CC1)CC2)c1c[nH]c2ccccc12 [Compound 1, quinuclidin-4-ylmethyl 1H-indole-3-carboxylate]",11
2,"COc1cccc2[nH]cc(C(=O)OCC34CCN(CC3)CC4)c12 [Compound 36, quinuclidin-4-ylmethyl 4-methoxy-1H-indole-3-carboxylate]",2.5
3,"O=C(OCC12CCN(CC1)CC2)c1c[nH]c2cc(O)ccc12 [Compound 14, quinuclidin-4-ylmethyl 6-hydroxy-1H-indole-3-carboxylate]",26
4,"O=C(OCC12CCN(CC1)CC2)c1c[nH]c2ccc(F)cc12 [Compound 12, quinuclidin-4-ylmethyl 5-fluoro-1H-indole-3-carboxylate]",31
5,"O=C(OCC12CCN(CC1)CC2)c1c[nH]c2cccc(Cl)c12 [Compound 35, quinuclidin-4-ylmethyl 4-chloro-1H-indole-3-carboxylate]",56
6,"COc1ccc2[nH]cc(C(=O)OCC34CCN(CC3)CC4)c2c1 [Compound 18, quinuclidin-4-ylmethyl 5-methoxy-1H-indole-3-carboxylate]",5.8
7,"O=C(OCC12CCN(CC1)CC2)c1c[nH]c2cccc(Br)c12 [Compound 24, quinuclidin-4-ylmethyl 4-bromo-1H-indole-3-carboxylate]",89
8,"O=C(OCC12CCN(CC1)CC2)c1c[nH]c2cc(Cl)ccc12 [Compound 26, quinuclidin-4-ylmethyl 6-chloro-1H-indole-3-carboxylate]",65
9,"O=C(OCC12CCN(CC1)CC2)c1c[nH]c2ccc(Br)cc12 [Compound 23, quinuclidin-4-ylmethyl 5-bromo-1H-indole-3-carboxylate]",21

# Same assay, conditions: human, plasma, pH 7.4
SMILES,half-life at 5 μM [h],T1/2
"Cc1cc(Br)c2c(C(=O)OCC34CCN(CC3)CC4)c[nH]c2c1 [Compound 49, quinuclidin-4-ylmethyl 4-bromo-6-methyl-1H-indole-3-carboxylate]",13.8,
"Cc1c(OCC(F)(F)F)ccc2[nH]cc(C(=O)OCC34CCN(CC3)CC4)c12 [Compound 94, quinuclidin-4-ylmethyl 4-methyl-5-(2,2,2-trifluoroethoxy)-1H-indole-3-carboxylate]",5.74,
"COc1ccc2[nH]cc(C(=O)OCC34CCN(CC3)CC4)c2c1Br [Compound 47, quinuclidin-4-ylmethyl 4-bromo-5-methoxy-1H-indole-3-carboxylate]",4.34,
"COc1cc(C#N)cc2[nH]cc(C(=O)OCC34CCN(CC3)CC4)c12 [Compound 77, quinuclidin-4-ylmethyl 6-cyano-4-methoxy-1H-indole-3-carboxylate]",3.87,
"COc1c(OCC(F)(F)F)ccc2[nH]cc(C(=O)OCC34CCN(CC3)CC4)c12 [Compound 88, quinuclidin-4-ylmethyl 4-methoxy-5-(2,2,2-trifluoroethoxy)-1H-indole-3-carboxylate]",,∞
"Cc1cc(OC(=O)C(C)(C)C)cc2[nH]cc(C(=O)OCC34CCN(CC3)CC4)c12 [Compound 89, quinuclidin-4-ylmethyl 4-methyl-6-(pivaloyloxy)-1H-indole-3-carboxylate]",5.16,
"O=C(OCC12CCN(CC1)CC2)c1c[nH]c2ccc3c(c12)OCCO3 [Compound 81, quinuclidin-4-ylmethyl 2,3-dihydro-7H-[1,4]dioxino[2,3-e]indole-9-carboxylate]",4.5,
"CC(=O)Nc1cc(C)c2c(C(=O)OCC34CCN(CC3)CC4)c[nH]c2c1 [Compound 93, quinuclidin-4-ylmethyl 6-acetamido-4-methyl-1H-indole-3-carboxylate]",10.7,
"O=C(OCC12CCN(CC1)CC2)c1c[nH]c2cc(F)cc(Br)c12 [Compound 41, quinuclidin-4-ylmethyl 4-bromo-6-fluoro-1H-indole-3-carboxylate]",,∞
"COc1cc(C)c2c(C(=O)OCC34CCN(CC3)CC4)c[nH]c2c1 [Compound 37, quinuclidin-4-ylmethyl 6-methoxy-4-methyl-1H-indole-3-carboxylate]",,∞
"Cc1ccc2[nH]cc(C(=O)OCC34CCN(CC3)CC4)c2c1Br [Compound 68, quinuclidin-4-ylmethyl 4-bromo-5-methyl-1H-indole-3-carboxylate]",,∞
"COc1cc2[nH]cc(C(=O)OCC34CCN(CC3)CC4)c2cc1C [Compound 56, quinuclidin-4-ylmethyl 6-methoxy-5-methyl-1H-indole-3-carboxylate]",5.72,
"COc1c(C)ccc2[nH]cc(C(=O)OCC34CCN(CC3)CC4)c12 [Compound 75, quinuclidin-4-ylmethyl 4-methoxy-5-methyl-1H-indole-3-carboxylate]",,∞
"COc1cc(Br)c2c(C(=O)OCC34CCN(CC3)CC4)c[nH]c2c1 [Compound 48, quinuclidin-4-ylmethyl 4-bromo-6-methoxy-1H-indole-3-carboxylate]",982,
"Cc1cc(C#N)cc2[nH]cc(C(=O)OCC34CCN(CC3)CC4)c12 [Compound 60, quinuclidin-4-ylmethyl 6-cyano-4-methyl-1H-indole-3-carboxylate]",22.9,
"COCCOc1ccc2[nH]cc(C(=O)OCC34CCN(CC3)CC4)c2c1C [Compound 91, quinuclidin-4-ylmethyl 5-(2-methoxyethoxy)-4-methyl-1H-indole-3-carboxylate]",8.32,
"COc1cc2c(C(=O)OCC34CCN(CC3)CC4)c[nH]c2cc1O [Compound 86, quinuclidin-4-ylmethyl 6-hydroxy-5-methoxy-1H-indole-3-carboxylate]",0.954,
"COc1cc2c(C(=O)OCC34CCN(CC3)CC4)c[nH]c2cc1C#N [Compound 76, quinuclidin-4-ylmethyl 6-cyano-5-methoxy-1H-indole-3-carboxylate]",4.88,
"COc1cc(Cl)c2c(C(=O)OCC34CCN(CC3)CC4)c[nH]c2c1 [Compound 38, quinuclidin-4-ylmethyl 4-chloro-6-methoxy-1H-indole-3-carboxylate]",,∞
"O=C(OCC12CCN(CC1)CC2)c1c[nH]c2cc(Cl)cc(Br)c12 [Compound 42, quinuclidin-4-ylmethyl 4-bromo-6-chloro-1H-indole-3-carboxylate]",2.87,

# Same assay, conditions: human; Protocol 2; plasma pH 7.4 to 8.0, 5 μM, 37° C.; read-out: T1/2
row,SMILES,half-life at 5 μM [h]
1,"Cl.O=C(OCC12CCN(CC1)CC2)c1c[nH]c2cc(Cl)c(F)cc12 [Compound 52, Quinuclidin-4-ylmethyl 6-chloro-5-fluoro-1H-indole-3-carboxylate hydrochloride]",8.88
2,"Cc1cc(Cl)c2c(C(=O)OCC34CCN(CC3)CC4)c[nH]c2c1.Cl [Compound 65, quinuclidin-4-ylmethyl 4-chloro-6-methyl-1H-indole-3-carboxylate hydrochloride]",5.56
3,"COc1cc(Cl)cc2[nH]cc(C(=O)OCC34CCN(CC3)CC4)c12.Cl [Compound 74, quinuclidin-4-ylmethyl 6-chloro-4-methoxy-1H-indole-3-carboxylate hydrochloride]",2.94
4,"Cl.O=C(OCC12CCN(CC1)CC2)c1c[nH]c2cc(F)c(F)cc12 [Compound 51, Quinuclidin-4-ylmethyl 5,6-difluoro-1H-indole-3-carboxylate hydrochloride]",5.89
5,"Cc1cc2[nH]cc(C(=O)OCC34CCN(CC3)CC4)c2cc1F [Compound 72, Quinuclidin-4-ylmethyl 5-fluoro-6-methyl-1H-indole-3-carboxylate hydrochloride]",3.8
6,"Cc1cc2[nH]cc(C(=O)OCC34CCN(CC3)CC4)c2cc1C.Cl [Compound 73, Quinuclidin-4-ylmethyl 5,6-dimethyl-1H-indole-3-carboxylate hydrochloride]",1.57
7,"O=C(OCC12CCN(CC1)CC2)c1c[nH]c2cc(O)cc(Br)c12 [Compound 53, quinuclidin-4-ylmethyl 4-bromo-6-hydroxy-1H-indole-3-carboxylate]",31.1
8,"Cc1cc2c(C(=O)OCC34CCN(CC3)CC4)c[nH]c2cc1C#N [Compound 84, quinuclidin-4-ylmethyl 6-cyano-5-methyl-1H-indole-3-carboxylate]",3.49
9,"Cl.O=C(OCC12CCN(CC1)CC2)c1c[nH]c2cc(C(F)(F)F)ccc12 [Compound 90, quinuclidin-4-ylmethyl 6-(trifluoromethyl)-1H-indole-3-carboxylate]",3.05
